The text below walks through data of patent US9089570B2, “Compositions for treating cancers having acquired resitance to prior chemotherapeutic and targeted drugs using carboxyamidotriazole orotate” (TACTICAL THERAPEUTICS INC, priority 2013, dated 2015).

Test [1] concerns imatinib mesylate-resistant chronic myeloid leukemia cells. The note with it: by down-regulating bcr-abl, Alessandro et al, 2008; cited from earlier work.
Test [2] has as its system Akt and Erk1/2 phosphorylation. As to conditions: exosomes-stimulated HUVEC cell; Corrado et al, 2012; cited from earlier work.
The test system of test [3] is refractory renal cell carcinoma. Briefly: Phase I clinical study of CTO, patient with refractory renal cell carcinoma. Format: in vivo, human. As to conditions: 75 mg/m2/day. How it is done:
(§1) This invention contemplates treating these cancers and other cancers at any stage from the discovery of the cancer to the advanced stage, starting with the first step of carrying out the genotyping of the primary and secondary tumors. The effectiveness of the CTO treatment is determined by controlled clinical studies. The cancers are evaluated by measuring tumors no more than 14 days before the start of the treatment, and evaluated after 2 cycles of 28 days after day 1 of the administration of the first dose of CTO. The tumor size is measured by the most accurate measurement such as PET-CT, CT scan, MRI scan, x-ray, ultrasound, etc. […]
(§2) “Partial response” means a) for bidimensionally measurable tumors, a decrease of at least 50% in the sum of the products of the largest perpendicular diameters of all measurable tumors as determined by two observations not less than four weeks apart, b) for undimensionally measurable tumors, a decrease by at least 50% in the sum of the largest diameters of all tumors as determined by two observation not less than four weeks apart. […]
After having established the baseline clinical parameters, the patient was given 75 mg/m2/day for a period of 28 days for two cycles and the tumor was measured. […]

Test [4] relates to refractory metastatic colorectal cancer (BRAF V660E). Briefly: Phase I clinical study of CTO, patient with refractory metastatic colorectal cancer. The note with it: 285 mg/m2/day. It counts as in vivo, human. Here is the method:
as §1, §2
After having established the baseline clinical parameters, the patient was given 285 mg/m2/day for a period of 28 days for two cycles and the tumor was measured. […]

Test [5] has as its system refractory NSCLC tumor (PI3KCA, E545K). Briefly: Phase I clinical study of CTO, patient with refractory NSCLC (PI3KCA, E545K). As to conditions: 219 mg/m2/day. It counts as in vivo, human. Here is the method: as §1, §2
In the present invention, a patient with NSCLC who had received prior treatment with paclitaxel, carboplatin erlotinib and docetaxel. […] After having established the baseline clinical parameters, the patient was given 219 mg/m2/day for a period of 28 days for two cycles and the tumor was measured. […]

Test [6] concerns refractory NSCLC tumor (EGFR, ELREATS 746-752 V (exon 19)). The test can be described thus: Phase I clinical study of CTO, patient with refractory NSCLC (EGFR exon 19). It counts as in vivo, human. The note with it: EGFR exon 19 mutation, 219 mg/m2/day. How it is done:
as §1, with “etc. The criteria for evaluating response are described in the revised Response Evaluation Criteria in Solid Tumors Guidelines, Eisenhauer et al, 1990 and by the Macdonald Criteria for response to high grade gliomas, Macdonald et al, 1990.” for “etc.”
as §2

Test [7] deals with refractory head and neck tumor (PI3KCA, E545K). Briefly: Phase I clinical study of CTO, patient with refractory head and neck cancer. It counts as in vivo, human. The note with it: 285 mg/m2/day.
Excerpt: “Progressive disease” is defined as an increase of 25% or greater in the product of the largest perpendicular diameters for at least one bidimensionally measurable tumor, or an increase of 25% or greater at least one undimensionally measurable tumor or appearance of a new lesion or clinical deterioration. […]
The conditions of test [8]: FOLFIRI (fluorouracil, leucovorin, irinotecan) regimen; Carrato et al 2013; cited from earlier work.
Test [9] concerns head and neck cancer. As to conditions: cited from earlier work.

As for `NC(=O)c1nnn(Cc2cc(Cl)c(C(=O)c3ccc(Cl)cc3)c(Cl)c2)c1N` [CAI, Carboxyamidotriazole], the apoptosis result in test [1] was “induces apoptosis”.
With `NC(=O)c1nnn(Cc2cc(Cl)c(C(=O)c3ccc(Cl)cc3)c(Cl)c2)c1N.O=C(O)c1cc(=O)[nH]c(=O)[nH]1` [CTO, carboxyamidotriazole orotate], the “Akt and Erk1/2 phosphorylation” value in test [2] is on record as “inhibits”. For the same molecule, the “duration of stable disease and partial response” value in test [3] (28-day cycles, CTO continued) was “over twelve”; in test [4] (28-day cycles), “six”; in [5] (28-day cycles), “more than twelve”; in test [6] (28-day cycles) it was “more than twelve”; in test [7] (28-day cycles), “more than six”. The “tumor response measured after two cycles” value in [3] (prior IL-2, pegylated IFN, sorafenib, sunitnib, erlotinib, torisel, 28 days, two cycles) is recorded as “responded by not progressing”; in test [4] (prior leucovorin, fluorouracil, oxaliplatin, bevacizumab, cetuximab, capecitabine, panitumumab, irinotecan, 28 days, two cycles) it was “responded to CTO by not progressing”; in test [5] (prior paclitaxel, carboplatin, erlotinib, docetaxel, 28 days, two cycles) it was “responded by not progressing”; in [6] (prior carboplatin, paclitaxel, docetaxel, erlotinib, cisplatin, gemcitamide, premetrexed, 28 days, two cycles), “responded by not progressing”; in test [7] (PI3KCA E545K, prior cetuximab, cisplatin, taxotere, 28 days, two cycles), “responded by not progressing”.
With `CCN(CC)CCNC(=O)c1c(C)[nH]c(/C=C2\C(=O)Nc3ccc(F)cc32)c1C` [Sunitnib], the “superiority over FOLFIRI alone” value in [8] is recorded as “did not prove superior over FOLFIRI alone”.
As to `C#Cc1cccc(Nc2ncnc3cc(OCCOC)c(OCCOC)cc23)c1` [erlotinib], the “improvement when added to chemotherapy and radiotherapy” value in [9] was “no improvement”.
